SMILES strings stand for the structures.

The target of the assay is T1, CXCR4 (Homo sapiens, UniProt P61073).
T1 construct: endogenous in cells; host or cells: CEM-Nkr, CCRF-CEM (ATCC #CCL-119), Jurkat (ATCC #TIB-152), Molt-4 (ATCC# CRL-1582); IL-2 stimulated lymphocytes from human blood
T1 sequence (P61073 whole entry): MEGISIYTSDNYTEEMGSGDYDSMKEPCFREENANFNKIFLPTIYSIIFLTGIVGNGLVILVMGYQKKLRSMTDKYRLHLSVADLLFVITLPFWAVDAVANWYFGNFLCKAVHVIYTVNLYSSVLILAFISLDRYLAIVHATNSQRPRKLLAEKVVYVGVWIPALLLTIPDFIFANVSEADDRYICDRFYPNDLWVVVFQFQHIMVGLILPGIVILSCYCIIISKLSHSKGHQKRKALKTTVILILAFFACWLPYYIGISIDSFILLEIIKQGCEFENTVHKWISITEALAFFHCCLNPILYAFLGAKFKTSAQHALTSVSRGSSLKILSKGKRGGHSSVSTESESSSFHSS
Briefly: Inhibition of SDF-1 ligand binding or chemotaxis assay for CXCR4. The note with it: first (or only) activity listed in CXCR4/CXCR7; chemotaxis assay or binding assays. The method, then: CEM-Nkr, CCRF-CEM (ATCC #CCL-119), Jurkat (ATCC #TIB-152), Molt-4 (ATCC# CRL-1 582), cell lines, all endogenously expressing CXCR4, were used in compound screening and subsequent assays. These cell lines were cultured as a suspension in RPMI-1640 medium supplemented with 2 mM L-glutamine, 1.5 g/L sodium bicarbonate, 4.5 g/L glucose, 10 mM HEPES, 1 mM sodium pyruvate, and 10% FBS. Cells were grown under 5% CO2/95% air, 100% humidity at 37° C. and subcultured twice weekly at 1:6 (cells were cultured at a density range of 1×10^5 to 2×10^6 cells/mL) and harvested at 1×10^6 cells/mL.
Il-2 stimulated lymphocytes were isolated from fresh human blood using density separation and centrifigation. Briefly, whole blood is incubated with equal parts 3% dextran and allowed to separate for 45 minutes. After separation, the top layer is then layered on top of 15 mls of Ficoll (15 mls of Ficoll for every 30 mls of blood suspension) and centrifuged for 30 minutes at 400×g with no brake. The pellet at the bottom of the tube is then isolated and resuspended into PharmLyse RBC Lysis Buffer (BD Biosciences, San Jose, Calif.) after which the sample is again centrifuged for 10 minutes at 400×g with brake. The remaining cell pellet is resuspended as appropriate and stimulated with PHA for 2 days, followed by culturing in the presence of human IL-2 cytokine.
Cells were centrifuged and resuspended in assay buffer (20 mM HEPES pH 7.1, 140 mM NaCl, 1 mM CaCl2, 5 mM MgCl2, and with 0.2% bovine serum albumin) to a concentration of 4×10^6 cells/mL for cell lines. Binding assays were set up as follows. 0.15 mL of cells (6×10^5 cells/well) was added to the assay plates containing the compounds, giving a final concentration of ˜2-10 μM each compound for screening (or part of a dose response for compound IC50 determinations). Then 0.1 mL of ^125I labeled SDF-1α (obtained from Perkin Elmer Life Sciences, Boston, Mass.) diluted in assay buffer to a final concentration of ˜[…], yielding ˜30,000 cpm per well, was added, the plates sealed and incubated for approximately 3 hours at 4° C. on a shaker platform. Reactions were aspirated onto GF/B glass filters pre-soaked in 0.3% polyethyleneimine (PEI) solution, on a vacuum cell harvester (Packard Instruments; Meriden, Conn.). Scintillation fluid (40 μl; Microscint 20, Packard Instruments) was added to each well, the plates were sealed and radioactivity measured in a Topcount scintillation counter (Packard Instruments). Control wells containing either diluent only (for total counts) or excess SDF1a (1 μg/mL, for non-specific binding) were used to calculate the percent of total inhibition for compound. The computer program Prism from Graph Pad, Inc. (San Diego, Calif.) was used to calculate IC50 values. IC50 values are those concentrations required to reduce the binding of radiolabeled SDF-1α to the receptor by 50%. (For further descriptions of ligand binding and other functional assays, see Dairaghi, et al., J. Biol. Chem. 274:21569-21574 (1999), Penfold, et al., Proc. Natl. Acad. Sci. USA. 96:9839-9844 (1999), and Dairaghi, et al,. J. Biol. Chem. 272:28206-28209 (1997)).
Chemotaxis assays were performed using 5 μm pore polycarbonate, polyvinylpyrrolidone-coated filters in 96-well chemotaxis chambers (Neuroprobe; Gaithersburg, Md.) using chemotaxis buffer (Hank's balanced salt solution (HBSS) and 1% FBS). CXCR4 ligand (i.e., SDF1a, R&D Systems; Minneapolis, Minn.) are use to evaluate compound mediated inhibition of CXCR4 mediated migration. Other chemokines (i.e., TECK; R&D Systems; Minneapolis, Minn.) are used as specificity controls. The lower chamber was loaded with 29 μl of chemokine (i.e., 0.1 nM SDF1a); the top chamber contained 50,000 Jurkat cells or IL-2 lymphocytes in 20 μl. […]
`COc1ccc2c(c1)c1c(cnn1CC(=O)NCCN1CCC3CCCCC3C1)c(=O)n2C` (stereo not drawn) [Compound 16] yielded an IC50 of under 1000 nM.

As for `COc1ccc2c(c1)-c1c(cnn1CC(=O)NCCN(C)C1CCCCCC1)CO2` [Compound 26], the IC50 was over 10000 nM.

`COc1ccc2c(c1)c1c(cnn1CC(=O)NCCN(C)C1CCOCC1)c(=O)n2C` [Compound 18] came in with an IC50 of over 10000 nM.

Compound `COc1nc2cnn(CC(=O)NCCN(C)C3CCCCC3)c2c2ccccc12` [Compound 11] returned an IC50 of 1000 to 10000 nM.

`Cc1ccc2c(c1)-c1c(cnn1CC(=O)N1CCN(C3CCCCCC3)CC1)CO2` [Compound 5] gave an IC50 of 1000 to 10000 nM.

On to `COc1ccc2c(c1)c1c(cnn1C(C)C(=O)NCCN(C)C1CCCCC1)c(=O)n2C` (stereo not drawn) [Compound 15], for which the IC50 was in the range of 1000 to 10000 nM.

The compound `COc1ccc2c(c1)-c1c(cnn1CC(=O)NCCN(C1CCCCC1)C1CCCCC1)CO2` [Compound 7] gave an IC50 of 1000 to 10000 nM.

Take `COc1ccc2c(c1)-c1c(cnn1CC(=O)NCCN(C)C1CCCCCCC1)CO2` [Compound 25]: the IC50 is 1000 to 10000 nM.

In turn, `COc1ccc2c(c1)c1c(cnn1CC(=O)NCCN1CC[C@@H]3CCCC[C@H]3C1)c(=O)n2C` [Compound 34] registered an IC50 of under 1000 nM.

Consider `CCN(CCNC(=O)Cn1ncc2c(=O)n(C)c3ccc(OC)cc3c21)C1CCCCC1` [Compound 29], for which the IC50 lay in the range of 1000 to 10000 nM.

In turn, `COc1ccc2c(c1)c1c(cnn1CC(=O)NCCN(C)C1CCCCC1)c(=O)n2CC(=O)OC(C)(C)C` [Compound 12] had an IC50 of 1000 to 10000 nM.

The compound `COc1ccc2c(c1)-c1c(cnn1CC(=O)NCCN(C)C1CCCC1)CO2` [Compound 20] registered an IC50 of 1000 to 10000 nM.

`COc1ccc2c(c1)c1c(cnn1C(=O)NCCN1CCC[C@@H]3CCCC[C@H]31)c(=O)n2C` [Compound 28]: the IC50 was under 1000 nM.

In turn, `COc1ccc2c(c1)c1c(cnn1CC(=O)NCCN1CCCC(C)C1)c(=O)n2C` (stereo not drawn) [Compound 40] returned an IC50 of 1000 to 10000 nM.

`COc1ccc2c(c1)c1c(cnn1CC(=O)NCCCN(C)C1CCCCC1)c(=O)n2C` [Compound 35] gave an IC50 of under 1000 nM.

Turning to `Cc1ccc2c(c1)-c1nn(CC(=O)NCCN(C)C3CCCCC3)cc1CO2` [Compound 3], the IC50 was in the range of 1000 to 10000 nM.

As for `CN(CCNC(=O)Cn1ncc2c1-c1ccc(C#N)cc1OC2)C1CCCCC1` [Compound 19], the IC50 is under 1000 nM.

`COc1ccc2nc(OC)c3cnn(CC(=O)NCCN(C)C4CCCCC4)c3c2c1` [Compound 9] yielded an IC50 of under 1000 nM.

`CCN(CCCNC(=O)Cn1ncc2c(=O)n(C)c3ccc(OC)cc3c21)C1CCCCC1` [Compound 37] had an IC50 of under 1000 nM.

With `COc1ccc2c(c1)c1c(cnn1C(C)C(=O)NCCCN(C)C1CCCCC1)c(=O)n2C` (stereo not drawn) [Compound 38], the IC50 was in the range of 1000 to 10000 nM.

The compound `CN(CCCNC(=O)Cn1ncc2cc3ccccc3nc21)C1CCCCC1` [Compound 14] showed an IC50 of 1000 to 10000 nM.

In turn, `CN(CCNC(=O)Cn1ncc2c(=O)oc3ccc(Cl)cc3c21)C1CCCCC1` [Compound 22] came in with an IC50 of 1000 to 10000 nM.

Consider `Cc1cc2c(cc1Cl)-c1c(cnn1CC(=O)NCCN(C)C1CCCCC1)CO2` [Compound 23], for which the IC50 was over 10000 nM.

The compound `Cc1ccc2c(c1)c1c(cnn1CC(=O)NCCN(C)C1CCCCC1)c(=O)n2C` [Compound 8] displayed an IC50 of 1000 to 10000 nM.

Take `COc1nc2ccc(C)cc2c2c1cnn2CC(=O)NCCN(C)C1CCCCC1` [Compound 36]: the IC50 fell in the range of 1000 to 10000 nM.

In turn, `COc1ccc2c(c1)-c1c(cnn1C(=O)NCCN1CCC[C@@H]3CCCC[C@@H]31)CO2` [Compound 27] gave an IC50 of 1000 to 10000 nM.

Turning to `CCn1c(=O)c2cnn(CC(=O)NCCN(C)C3CCCCC3)c2c2cc(OC)ccc21` [Compound 33], the IC50 was under 1000 nM.

Consider `CN(CCNC(=O)Cn1ncc2c1-c1ccccc1CC2)C1CCCCC1` [Compound 6], for which the IC50 was in the range of 1000 to 10000 nM.

Compound `CN(CCNC(=O)Cn1ncc2c(=O)oc3ccccc3c21)C1CCCCC1` [Compound 21] had a 50% inhibitory concentration (IC50) of over 10000 nM.

In turn, `CN(CCNC(=O)Cn1ncc2[nH]c(=O)c3ccccc3c21)C1CCCCC1` [Compound 10] registered a half-maximal inhibitory concentration (IC50) of over 10000 nM.

As for `COc1ccc2c(c1)c1c(cnn1CC(=O)NCC1CCCN(C3CCCCC3)C1)c(=O)n2C` (stereo not drawn) [Compound 17], the IC50 is over 10000 nM.

The compound `CN(CCNC(=O)Cn1ncc2c1-c1cc(Cl)ccc1OC2)C1CCCCC1` [Compound 4] came in with an IC50 of over 10000 nM.

Take `COc1ccc2c(c1)-c1c(cnn1CC(=O)NCCN(C)C1CCCCC1)C(OCC(=O)OC(C)(C)C)N2` (stereo not drawn) [Compound 39]: the IC50 lay within 1000 to 10000 nM.

As a reminder, the IC50 is the concentration at which inhibition is half-maximal. The low end stands for greater potency, the high end for weaker potency.

The values are drawn from patent US7671069B2, “Tricyclic, heteroaromatic compounds modulating CXCR4 and/ or CXCR7” (ChemoCentryx, Inc., priority 2006, dated 2010).
